Laboratory results reported in US20250283046A1, “New Cell Populations and Means and Methods for their Differentiation and Preservation” (EVOTEC INTERNATIONAL GMBH, priority 2022, published 2025).

What was measured:
Format in all cases: cell-based, human
[1] = tested on: ILC cells; experiment: Flow cytometry of islet-like clusters differentiated from hiPSC with the combination protocol
Method: Beta cell differentiation from iPSC aggregates was carried out using several hiPSC lines with a new protocol derived by combining two published protocols (Nostro et al., Stem Cell Reports (2015), 4(4): 591-604; Rezania et al., Nat Biotechnol (2014), 32(11): 1121-1133), further referred to as “combination protocol”. iPSCs were seeded as single cells in suspension at 1×10^6 cells/mL in mTeSR1 (StemCell Technologies Inc.; 05850) with […] Y-27632 and kept in culture in 100 mL spinner flasks on a stirring platform to form aggregates under low shear conditions (see e.g. Fok and Zandstra, Stem Cells 2005; 23:1333-1342). At day 0 of differentiation, iPSC clusters were treated with Basal medium 1 (BM1) with the addition of 100 ng/mL Activin A, 2 μM CHIR 99021 and 10 μM Y-27632 to induce definitive endoderm. On subsequent days, media change was performed as described below, and occurred daily up to day 14, every other day after that. Definitive endoderm (DE) was induced from day 0 to day 3 and gut tube (GT) was patterned from day 3 to day 6. On day 6, pancreatic progenitors (PP) were induced until day 11. Commitment to the endocrine (EN) lineage was then performed between day 11 and day 14, and day 14 EN clusters were differentiated to islet-like clusters (ILCs) until day 24 (FIG. 1).
As a result, the content of chromogranin A^pos cells rose to levels above 95% (FIGS. 2A, 2C).
The addition of gamma secretase inhibitor and removal of T3 led to increased populations of pancreatic islet endocrine cells in islet-like clusters. […] In addition, the somatostatin^pos population was increased in islet-like clusters generated with the addition of gamma secretase inhibitor and removal of T3 (FIG. 7; FIG. 11; FIG. 14; FIG. 15A).
Quantification of the EC cell population in islet-like clusters was performed by FACS for serotonin^pos and C-peptide^neg cells. While islet-like clusters generated using the combination protocol (Control) contain 30% of pancreatic EC cells, the addition of gamma secretase inhibitor in absence of T3 (+GSI/−T3) led to a drastic reduction of this population, down to levels <15% (FIGS. 5A, 5B).

[2] = tested on: ILC cells; experiment: Flow cytometry of islet-like clusters obtained with the second protocol; conditions: second protocol with addition of GSI and removal of T3
Description: As the combination protocol, the second protocol starts with seeding and aggregation of single pluripotent cells in suspension, and proceeds through the same intermediate stages of pancreatic embryonic development (definitive endoderm/DE, primitive gut tube, pancreatic progenitors, endocrine differentiation) to beta cell-containing islet-like clusters (ILCs) containing C-peptide^pos/insulin^pos/NKX6.1^pos beta cells. Differences to the combined protocol include the addition of a combination of BMP4 and bFGF during the first day of DE induction (see also Example 4), and longer durations of media incubations during pancreatic progenitor and endocrine induction, resulting in an overall longer time from start of differentiation to EN stage (EN stage on day 16 instead of day 14). Similar to the combined protocol, the second protocol was modified by additional gamma secretase inhibitor treatment in absence of T3 during the EN to ILC transition. The latter version of the adapted protocol is referred to “second protocol +GSI/−T3”.

[3] = tested on: post-thaw islet-like clusters; experiment: Post-thaw recovery rate of islet-like clusters (viable cell count); conditions: combination protocol, frozen at EN stage with Medium A, freezing procedure A; GSI without T3 after thawing
Method: (§1) Using the combination protocol, induced pluripotent stem cells were differentiated into EN clusters. […] Clusters were cryoprotected before freezing by addition of the basal cryoprotective medium, consisting of KnockOut™ Serum Replacement, 10 μM ROCKi and 2 μM fatty acids, with increasing concentrations of DMSO and EG, in combination with incubation steps at decreasing temperatures. The DMSO and EG concentrations during the cryoprotection protocol and the corresponding stock concentrations, along with incubation times and temperatures, are given in table 1.
EN clusters, transferred to cryogenic vials, were frozen directly after the stepwise cryoprotection treatment in a controlled rate freezer using the following protocol (freezing procedure A): • 1. The sample is cooled-down to −7.5° C. (+/−0.7° C.); • 2. […]
Recovery rates were determined after post-thaw culture of 4-6 days, i.e. differentiation into islet-like clusters, by determination of viable cell count. Clusters, dissociated into single cells, were stained and analysed for different markers with flow cytometry. […]
Subsequent to the cryoprotection, the clusters were frozen using freezing procedure A, as described. […] Recovery rates of post-thaw islet-like clusters were determined by determination of viable cell count. Viability was determined with a viability staining with PI and FDA, imaged with a fluorescence microscope. […]

[4] = tested on: post-thaw islet-like clusters; experiment: Flow cytometry of post-thaw islet-like clusters; conditions: combination protocol
Method: as §1
EN clusters, transferred to cryogenic vials, were frozen directly after the stepwise cryoprotection treatment in a controlled rate freezer using the following protocol (freezing procedure A): • 1. The sample is cooled-down to −7.5° C. (+/−0.7° C.); • 2. Induction of nucleation by mechanical agitation and inducing a supercool spot at the outer vial wall; • 3. Incubation for 15-minutes at −7.5° C.; • 4. Cool-down of sample to −40° C. at a rate of 0.3° C. per minute; • 5. Immersion of sample in liquid nitrogen; • 6. Transfer to liquid N2 tank for long-term storage.
After low-temperature storage of at least seven days, the EN clusters were thawed rapidly in a 37° C. waterbath and the cryoprotective medium is diluted with thawing medium, consisting of differentiation medium for the EN-stage as described previously, according to the combination protocol, supplemented with 20% KnockOut™ Serum Replacement and 10 μM ROCKi. After resuspension in fresh thawing medium, the EN clusters are cultured under standard culture conditions. The supplements in the thawing medium are removed by medium change after 24 hours, using differentiation medium for the EN-stage, according to the combination protocol, for further differentiation. Afterwards, the culture medium was refreshed regularly. […]
Recovery rates were determined after post-thaw culture of 4-6 days, i.e. differentiation into islet-like clusters, by determination of viable cell count. Clusters, dissociated into single cells, were stained and analysed for different markers with flow cytometry.

[5] = tested on: post-thaw islet-like clusters; experiment: Single-cell RNA sequencing of post-thaw islet-like clusters; conditions: second protocol, frozen at EN+1
Method: While applying the second differentiation protocol, clusters were frozen at EN+1 using the described cryoprotective medium of 7.2% DMSO+2.8% EG added within the stepwise cryoprotection treatment and freezing procedure A. After thawing the EN clusters as described, the clusters were differentiated into islet-like clusters according to the second protocol (Control) in comparison to the second protocol with extension of GSI and without T3 addition. Single-cell RNA sequencing was carried out after thawing and differentiation into islet-like clusters, after dissociation of clusters into single cells.

[6] = tested on: islet-like clusters; experiment: Single cell RNA sequencing and histology of islet-like clusters
Method: Beta cell differentiation from iPSC aggregates was carried out using several hiPSC lines with a new protocol derived by combining two published protocols (Nostro et al., Stem Cell Reports (2015), 4(4): 591-604; Rezania et al., Nat Biotechnol (2014), 32(11): 1121-1133), further referred to as “combination protocol”. iPSCs were seeded as single cells in suspension at 1×10^6 cells/mL in mTeSR1 (StemCell Technologies Inc.; 05850) with […] Y-27632 and kept in culture in 100 mL spinner flasks on a stirring platform to form aggregates under low shear conditions (see e.g. Fok and Zandstra, Stem Cells 2005; 23:1333-1342). At day 0 of differentiation, iPSC clusters were treated with Basal medium 1 (BM1) with the addition of 100 ng/mL Activin A, 2 μM CHIR 99021 and 10 μM Y-27632 to induce definitive endoderm. On subsequent days, media change was performed as described below, and occurred daily up to day 14, every other day after that. Definitive endoderm (DE) was induced from day 0 to day 3 and gut tube (GT) was patterned from day 3 to day 6. On day 6, pancreatic progenitors (PP) were induced until day 11. Commitment to the endocrine (EN) lineage was then performed between day 11 and day 14, and day 14 EN clusters were differentiated to islet-like clusters (ILCs) until day 24 (FIG. 1). […]

[7] = addition of gamma secretase inhibitor and removal of T3, compared to control
[8] = GSI in absence of T3 after thawing

C[C@H](NC(=O)Cc1cc(F)cc(F)c1)C(=O)N[C@H]1N=C(c2ccccc2)c2ccccc2N(C)C1=O [gamma secretase inhibitor, gamma secretase inhibitor XXI (CAS 209986-17-4)]
content of chromogranin A^pos cells ([1]; addition of gamma secretase inhibitor (1 μM, day 14-17) and removal of T3 after EN stage, combination protocol): above 95% | glucagon^pos cells [1, 7]: Significantly higher numbers | NKX6.1^pos/C-peptide^pos beta cell population ([1]; addition of gamma secretase inhibitor and removal of T3, FACS): > 65% | VMAT1/SLC18A1 expression ([1]; addition of gamma secretase inhibitor in absence of T3): similarly reduced | pancreatic EC cells (serotonin^pos and C-peptide^neg) ([1]; addition of gamma secretase inhibitor in absence of T3, combination protocol, control 30%): < 15% | NKX6.1^pos/C-peptide^pos cells [2]: above 65% | serotonin^pos/C-peptide^neg cells [2]: only a small fraction | post-thaw recovery versus control [3]: increases the post-thaw recovery | number of Chromogranin^pos cells in post-thaw islet-like clusters versus control [4, 8]: increases | number of beta-cells in post-thaw islet-like clusters versus control [4, 8]: increases | C-peptide^neg/serotonin^pos cell levels in post-thaw islet-like clusters versus control ([4]; GSI while omitting T3 after thawing): decreases | population of ductal cells, post-thaw ([5]; GSI without T3): decreased to low levels | populations of ARX^pos cells, post-thaw, versus Ctrl ([5]; extended GSI in absence of T3): increased | populations of beta-cells, post-thaw, versus Ctrl ([5]; extended GSI in absence of T3): increased | somatostatin (SST)^pos cells, post-thaw, versus Ctrl ([5]; extended GSI in absence of T3): increased | ductal cells (SOX9^pos/CFTR^pos) ([6]; addition of gamma secretase inhibitor and removal of T3): Only residual ductal cells | somatostatin^pos population [6, 7]: increased
